Test results reported in the supplement of paper PMC10307832.

Assays:
Assay in all cases: relative viability (nuclei count vs DMSO), 5 days (fraction); higher = more cells survive
CX-5461 + Crizotinib = compound: Cc1cnc(CNC(=O)c2c(=O)c3ccc(N4CCCN(C)CC4)nc3n3c2sc2ccccc23)cn1 [CX-5461] + C[C@@H](Oc1cc(-c2cnn(C3CCNCC3)c2)cnc1N)c1c(Cl)ccc(F)c1Cl [Crizotinib] (partner 1 µM)
In short: (§1)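 Five library-drug doses in √10 steps were combined with a fixed anchor-drug dose, or a single drug was given alone, by pin tool to lung cancer cell lines in 1536-well plates the day after seeding. Nuclei were stained and counted after 5 days. Relative viability is the nuclei count in treated wells over that in vehicle wells, taken as the median of duplicate plates.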

CX-5461 + Linsitinib = compound: Cc1cnc(CNC(=O)c2c(=O)c3ccc(N4CCCN(C)CC4)nc3n3c2sc2ccccc23)cn1 [CX-5461] + C[C@]1(O)C[C@@H](c2nc(-c3ccc4ccc(-c5ccccc5)nc4c3)c3c(N)nccn32)C1 [Linsitinib] (partner 1 µM)
In short: as §1

IMD-0354 + Palbociclib = compound: O=C(Nc1cc(C(F)(F)F)cc(C(F)(F)F)c1)c1cc(Cl)ccc1O [IMD-0354] + CC(=O)c1c(C)c2cnc(Nc3ccc(N4CCNCC4)cn3)nc2n(C2CCCC2)c1=O [Palbociclib] (partner 0.5 µM)
In short: as §1

IMD-0354 + Decitabine = compound: O=C(Nc1cc(C(F)(F)F)cc(C(F)(F)F)c1)c1cc(Cl)ccc1O [IMD-0354] + Nc1ncn([C@H]2C[C@H](O)[C@@H](CO)O2)c(=O)n1 [Decitabine] (partner 2 µM)
In short: as §1

Row | Cell Line | relative viability (CX-5461 + Crizotinib; first compound 0.01 µM) | relative viability (CX-5461 + Crizotinib; first compound 0.03162 µM) | relative viability (CX-5461 + Crizotinib; first compound 0.1 µM) | relative viability (CX-5461 + Crizotinib; first compound 0.3162 µM) | relative viability (CX-5461 + Crizotinib; first compound 1 µM) | relative viability (CX-5461 + Linsitinib; first compound 0.01 µM) | relative viability (CX-5461 + Linsitinib; first compound 0.03162 µM) | relative viability (CX-5461 + Linsitinib; first compound 0.1 µM) | relative viability (CX-5461 + Linsitinib; first compound 0.3162 µM) | relative viability (CX-5461 + Linsitinib; first compound 1 µM) | relative viability (IMD-0354 + Palbociclib; first compound 0.04 µM) | relative viability (IMD-0354 + Palbociclib; first compound 0.1265 µM) | relative viability (IMD-0354 + Palbociclib; first compound 0.4 µM) | relative viability (IMD-0354 + Palbociclib; first compound 1.265 µM) | relative viability (IMD-0354 + Palbociclib; first compound 4 µM) | relative viability (IMD-0354 + Decitabine; first compound 0.04 µM) | relative viability (IMD-0354 + Decitabine; first compound 0.1265 µM) | relative viability (IMD-0354 + Decitabine; first compound 0.4 µM) | relative viability (IMD-0354 + Decitabine; first compound 1.265 µM) | relative viability (IMD-0354 + Decitabine; first compound 4 µM)
1 | LOU-NH91 | 0.756 | 0.784 | 0.745 | 0.728 | 0.759 | 1 | 1.04 | 0.999 | 0.715 | 0.842 | 0.538 | 0.464 | 0.242 | 0.188 | 0.243 | 0.834 | 0.722 | 0.448 | 0.223 | 0.243
2 | LU99A | 0.571 | 0.552 | 0.495 | 0.344 | 0.453 | 0.562 | 0.575 | 0.494 | 0.345 | 0.53 | 0.295 | 0.418 | 0.325 | 0.279 | 0.179 | 0.565 | 0.885 | 0.539 | 0.617 | 0.293
3 | LXF-289 | 0.805 | 0.882 | 0.823 | 0.399 | 0.725 | 0.963 | 1 | 1.04 | 0.903 | 0.949 | 0.565 | 0.61 | 0.454 | 0.435 | 0.0922 | 0.375 | 0.312 | 0.393 | 0.356 | 0.201
4 | NCI-H23 | 0.609 | 0.584 | 0.55 | 0.437 | 0.48 | 0.612 | 0.554 | 0.709 | 0.529 | 0.451 | 0.482 | 0.418 | 0.349 | 0.153 | 0.189 | 0.271 | 0.313 | 0.295 | 0.192 | 0.24
5 | NCI-H322M | 0.924 | 1.06 | 0.79 | – | 0.877 | 0.844 | 0.911 | 0.944 | – | 0.9 | 0.507 | 0.5 | 0.5 | 0.39 | 0.41 | 0.747 | 0.583 | 0.617 | 0.403 | 0.404
6 | NCI-H358 | 0.524 | 0.57 | 0.365 | 0.26 | 0.174 | 0.817 | 0.748 | 0.345 | 0.314 | 0.304 | 0.144 | 0.136 | 0.119 | 0.0987 | 0.101 | 0.239 | 0.204 | 0.172 | 0.106 | 0.108
7 | NCI-H441 | 0.642 | 0.719 | 0.867 | 0.673 | 0.509 | 0.567 | 0.651 | 0.487 | 0.288 | 0.629 | 0.214 | 0.196 | 0.366 | 0.12 | 0.146 | 0.223 | 0.256 | 0.247 | 0.131 | 0.146
8 | NCI-H460 | 1.03 | 1.06 | 0.077 | 0.567 | 0.0138 | 1.02 | 0.713 | 0.133 | 0.537 | 0.0178 | 0.147 | 0.138 | 0.206 | 0.024 | 0.04 | 0.401 | 0.561 | 0.183 | 0.0498 | 0.0274
9 | NCI-H520 | 0.736 | 0.925 | 0.777 | 0.336 | 0.531 | 0.877 | 0.916 | 0.934 | 0.889 | 0.701 | 0.199 | 0.22 | 0.215 | 0.136 | 0.121 | 0.512 | 0.462 | 0.435 | 0.158 | 0.192
10 | NCI-H647 | 1.02 | 1.18 | 1.05 | 1.06 | 0.401 | 1.15 | 1.25 | 1.1 | 1.25 | 0.442 | 0.481 | 0.485 | 0.174 | 0.056 | 0.0731 | 0.381 | 0.426 | 0.237 | 0.117 | 0.106
11 | NCI-H650 | 0.666 | 0.961 | 0.668 | 0.309 | 0.631 | 0.955 | 0.999 | 0.697 | 0.571 | 0.373 | 0.301 | 0.283 | 0.322 | 0.232 | 0.189 | 0.303 | 0.3 | 0.346 | 0.288 | 0.201
12 | NCI-H661 | 1.01 | 1.08 | 1.02 | 0.615 | 0.944 | 0.593 | 0.721 | 0.87 | – | 0.433 | 0.397 | 0.385 | 0.369 | 0.276 | 0.253 | 0.567 | 0.534 | 0.389 | 0.244 | 0.233
13 | NCI-H727 | 0.695 | 0.835 | 0.692 | 0.767 | 0.703 | 0.351 | 0.276 | 0.321 | 0.342 | 0.129 | 0.502 | 0.582 | 0.667 | 0.709 | 0.455 | 0.827 | 0.864 | 0.788 | 0.502 | 0.405
14 | NCI-H838 | 0.973 | 0.87 | 0.843 | 0.347 | 0.641 | 1.1 | 1.05 | 1.08 | 0.847 | 0.859 | 0.223 | 0.23 | 0.178 | 0.186 | 0.151 | 0.482 | 0.443 | 0.345 | 0.243 | 0.272
15 | NCI-H1355 | 1.06 | 1.24 | 1.04 | 1.07 | 1.09 | 0.859 | 0.845 | 0.893 | 0.838 | 0.787 | 0.385 | 0.41 | 0.378 | 0.195 | 0.253 | 0.397 | 0.373 | 0.327 | 0.274 | 0.21
16 | NCI-H1437 | 1 | 0.948 | – | 0.885 | 0.791 | 1.17 | 1.11 | – | 0.991 | 0.763 | 0.338 | 0.29 | 0.166 | 0.141 | 0.162 | 0.635 | 0.538 | 0.34 | 0.257 | 0.229
